# Several values for one entry are separate records, joined by “and”; a condition that tells them apart may be missing. Identical values can stand only once.
# Tests used:
# [1] = target: T1, 14-3-3β/CFTRpS753pS768 complex (Homo sapiens, UniProt P13569+P31946); experiment: FP assay, 14-3-3β titration at constant compound concentration (apparent KD); format: binding
# T1 construct: His6 (cleaved yes); made in house; peptide synthetic
# Procedure: FC-A (100 µM) was added as a positive control and DMSO as the negative control. […] Background polarization was subtracted from all values, n = 3 technical replicates. […] Source data are provided as a Source Data file. […]
# The FITC-labeled peptides were dissolved in FP buffer (10 mM HEPES pH 7.4, 150 mM NaCl, 0.1% Tween20, 1 mg/mL BSA) to a final concentration of 100 nM or 10 nM. […] The dilution series were made in 384 Corning Black Round Bottom well plates and their polarization was measured with a Tecan Infinite F500 plate reader (ex. = 485 nm, em. = 535 nm). The method of fitting of the curves was: “log(agonist) vs. response – Variable slope (four parameters)” from GraphPad Prism. The equation is Y = Bottom + (Top-Bottom)/(1 + 10^((LogEC50-X)*HillSlope)).
# from the hit validation library.
# f the compound, 100 µM FC-A, or both compound and FC-A, 100 µM each. Background polarization was subtracted f
# rom all values, n=3 technical replicates.
# Source data are provided as a Source Data file.
# [2] = target: T2, F508del-CFTR in BHK cells (Homo sapiens, UniProt P13569, DEL508-508); experiment: FLIPR membrane potential (FMP) assay; format: cell-based, hamster; details: for FMP assay signal (Fig5b): individual replicates; for CFTR function (FMP assay): BHK cells, 24 h, 20 μM compound, genistein, forskolin
# T2 construct: expressed in transfected cells; host or cells: baby hamster kidney (BHK) cells
# Procedure: Twelve (12) validated hit compounds from the initial screening and focused validation library were tested for their effect on F508del-CFTR trafficking. Baby hamster kidney (BHK) cells expressing 3HA-tagged F508del-CFTR were treated for 24 h with 10 μM compound. After fixation of the cells, a combination of mouse monoclonal anti-HA antibody and anti-mouse IgG conjugated with FITC was used to detect F508del-CFTR that had trafficked to the plasma membrane as described previously. […] Additionally, a fluorescence imaging plate reader (FLIPR) Membrane Potential (FMP) assay was performed. This assay measures real-time membrane potential changes associated with ion channel activation and ion transporter proteins. F508del-CFTR expressing BHK cells were incubated for 24 h with 20 μM compound before treatment with the potentiator genistein, FMP dye, and activator forskolin. The fluorescence intensity is thus a measure for the function of the CFTR protein in the plasma membrane of these cells. The F508del-CFTR corrector VX-809 (lumacaftor) and the triple combination Trikafta® were used as positive controls in this assay. […] Another cellular assay was performed with the Ussing Chamber, which detects and quantifies transport of ions across epithelial tissue. F508del-CFTR expressing cystic fibrosis epithelial (CFBE) cells were treated for 18 h with 20 μM CY007424. After forskolin and genistein stimulation, the short-circuit current of the cells was measured.
# Fig. 5 Cellular activity of macrocycles stabilizing the 14-3-3/CFTR PPI. a Surface expression of 3HA-tagged F508del-CFTR in BHK cells incubated for 24 h with 10 μM compound and treated with mouse monoclonal anti-HA antibody and anti-mouse IgG conjugated with FITC (n = 4 or n = 3 biological replicates, bars represent the mean). b, c FLIPR Membrane Potential (FMP) assay of F508del-CFTR expressing BHK cells treated for 24 h with the macrocycles (b, n = 6 biological replicates, bars represent the mean) or with CY007424 and/or VX-809 or Trikafta®, with and without CFTR inhibitor INH172 (c, n = 4 biological replicates, bars represent the mean). d Using chamber experiment of F508del-CFTR expressing CFBE cells treated for 18 h with CY007424, VX-809, or Trikafta® or in combinations. CFTR activity is assayed by measurement of short-circuit current of cells after stimulation by forskolin and the potentiator genistein (n = 3 or n = 6 biological replicates, bars represent the mean). Source data are provided as a Source Data file.
# The FLuorescence Imaging Plate Reader (FLIPR) Membrane Potential (FMP) assay is based on the technique developed by Van Goor et al.[30] F508del-CFTR expressing baby hamster kidney (BHK) cells were incubated with the compounds for 24 h at 37 °C. The growth medium was removed from the cells by inverting the plate and FMP dye (Molecular Devices, Part #R8042) including the potentiator genistein (Sigma, G6649) was added back in 70 μl of low Cl^- containing buffer (160 mM NaGluconate, 4.5 mM KCl, 2 mM CaCl2, 1 mM MgCl2, 10 mM D-Glucose, 10 mM HEPES (pH7.4)). The plates were incubated for 5 min at RT before activation of CFTR in the plate reader (SynergyMX) with the addition of 14 µL of FMP dye in low Cl^- buffer containing 6x forskolin (Sigma, F6886) following a 2 min baseline read. Fluorescence intensity was monitored for 5 min following CFTR activation. Reported is the rate of fluorescence intensity change over time.
# [3] = CY compound (100 μM), 14-3-3β concentration 1.5625e-5 M
# [4] = CY compound (100 μM), 14-3-3β concentration 3.125e-5 M
# [5] = CY compound (100 μM), 14-3-3β concentration 6.25e-5 M
# [6] = CY compound (100 μM), 14-3-3β concentration 0.000125 M
# [7] = CY compound (100 μM), 14-3-3β concentration 0.00025 M
# [8] = CY compound (100 μM), 14-3-3β concentration 0.0005 M
# [9] = FC-A + CY compound, 14-3-3β concentration 1.5625e-5 M
# [10] = FC-A + CY compound, 14-3-3β concentration 3.125e-5 M
# [11] = FC-A + CY compound, 14-3-3β concentration 6.25e-5 M
# [12] = FC-A + CY compound, 14-3-3β concentration 0.000125 M
# [13] = FC-A + CY compound, 14-3-3β concentration 0.00025 M
# [14] = FC-A + CY compound, 14-3-3β concentration 0.0005 M
# [15] = CY compound (100 μM), 14-3-3β concentration 3.05176e-8 M
# [16] = CY compound (100 μM), 14-3-3β concentration 2.44141e-7 M
# [17] = CY compound (100 μM), 14-3-3β concentration 4.88281e-7 M
# [18] = CY compound (100 μM), 14-3-3β concentration 7.8125e-6 M
# [19] = FC-A + CY compound, 14-3-3β concentration 6.10352e-8 M
# [20] = FC-A + CY compound, 14-3-3β concentration 1.2207e-7 M
# [21] = FC-A + CY compound, 14-3-3β concentration 2.44141e-7 M
# [22] = FC-A + CY compound, 14-3-3β concentration 4.88281e-7 M
# [23] = FC-A + CY compound, 14-3-3β concentration 9.76563e-7 M
# [24] = FC-A + CY compound, 14-3-3β concentration 1.95313e-6 M
# [25] = FC-A + CY compound, 14-3-3β concentration 3.90625e-6 M
# [26] = FC-A + CY compound, 14-3-3β concentration 7.8125e-6 M
# T1 sequence (P31946 whole entry): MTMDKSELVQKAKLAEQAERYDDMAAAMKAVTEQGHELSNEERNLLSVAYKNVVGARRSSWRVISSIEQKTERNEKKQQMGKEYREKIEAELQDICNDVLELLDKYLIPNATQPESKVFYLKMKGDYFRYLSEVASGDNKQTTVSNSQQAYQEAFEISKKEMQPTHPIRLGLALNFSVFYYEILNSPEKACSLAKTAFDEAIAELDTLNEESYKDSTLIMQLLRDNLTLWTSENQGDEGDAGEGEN
# T1 sequence (P13569 747-774 limits assumed): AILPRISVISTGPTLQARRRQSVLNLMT
# T2 sequence (P13569 with tags, fused parts or gaps DEL508-508): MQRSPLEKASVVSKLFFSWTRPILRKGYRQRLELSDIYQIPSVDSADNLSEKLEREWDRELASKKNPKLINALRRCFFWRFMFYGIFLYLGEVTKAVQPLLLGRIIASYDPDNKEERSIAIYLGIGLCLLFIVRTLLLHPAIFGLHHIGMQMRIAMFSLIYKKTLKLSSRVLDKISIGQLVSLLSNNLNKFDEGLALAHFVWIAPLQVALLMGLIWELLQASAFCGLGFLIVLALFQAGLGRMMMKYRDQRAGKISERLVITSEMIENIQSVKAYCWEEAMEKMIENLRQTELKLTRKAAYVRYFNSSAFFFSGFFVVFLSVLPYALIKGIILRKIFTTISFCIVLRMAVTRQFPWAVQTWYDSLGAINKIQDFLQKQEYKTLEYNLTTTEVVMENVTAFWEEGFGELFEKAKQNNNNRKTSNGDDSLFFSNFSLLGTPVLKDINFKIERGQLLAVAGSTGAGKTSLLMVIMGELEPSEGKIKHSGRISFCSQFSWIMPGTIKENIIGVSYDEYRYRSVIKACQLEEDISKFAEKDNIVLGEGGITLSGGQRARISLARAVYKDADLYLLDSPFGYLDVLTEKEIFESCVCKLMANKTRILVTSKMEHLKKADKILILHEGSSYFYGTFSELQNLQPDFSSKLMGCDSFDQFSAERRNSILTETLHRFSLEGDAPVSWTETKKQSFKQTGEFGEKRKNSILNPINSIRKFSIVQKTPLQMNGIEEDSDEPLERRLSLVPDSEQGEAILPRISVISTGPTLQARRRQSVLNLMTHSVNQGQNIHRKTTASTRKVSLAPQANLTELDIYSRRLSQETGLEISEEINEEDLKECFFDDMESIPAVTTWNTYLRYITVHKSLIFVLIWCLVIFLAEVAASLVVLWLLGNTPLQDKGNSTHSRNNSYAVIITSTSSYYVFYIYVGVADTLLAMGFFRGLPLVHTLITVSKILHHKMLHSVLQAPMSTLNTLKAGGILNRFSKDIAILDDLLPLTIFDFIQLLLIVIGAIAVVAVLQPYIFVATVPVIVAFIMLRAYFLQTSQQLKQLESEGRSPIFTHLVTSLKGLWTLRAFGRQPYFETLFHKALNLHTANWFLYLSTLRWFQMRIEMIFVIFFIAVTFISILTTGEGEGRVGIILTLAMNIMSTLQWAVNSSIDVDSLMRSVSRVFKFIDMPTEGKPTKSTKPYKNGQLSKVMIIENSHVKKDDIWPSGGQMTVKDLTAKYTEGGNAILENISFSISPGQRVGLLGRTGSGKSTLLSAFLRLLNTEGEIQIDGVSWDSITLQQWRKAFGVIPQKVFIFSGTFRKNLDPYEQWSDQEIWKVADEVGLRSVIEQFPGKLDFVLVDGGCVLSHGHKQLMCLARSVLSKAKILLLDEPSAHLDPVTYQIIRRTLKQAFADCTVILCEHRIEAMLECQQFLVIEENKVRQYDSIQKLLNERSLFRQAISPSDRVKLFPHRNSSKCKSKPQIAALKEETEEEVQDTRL
SMILES,"Fluorescence polarization signal, 14-3-3β titration [1, 3]","Fluorescence polarization signal, 14-3-3β titration [1, 4]","Fluorescence polarization signal, 14-3-3β titration [1, 5]","Fluorescence polarization signal, 14-3-3β titration [1, 6]","Fluorescence polarization signal, 14-3-3β titration [1, 7]","Fluorescence polarization signal, 14-3-3β titration [1, 8]","Fluorescence polarization signal, 14-3-3β titration [1, 9]","Fluorescence polarization signal, 14-3-3β titration [1, 10]","Fluorescence polarization signal, 14-3-3β titration [1, 11]","Fluorescence polarization signal, 14-3-3β titration [1, 12]","Fluorescence polarization signal, 14-3-3β titration [1, 13]","Fluorescence polarization signal, 14-3-3β titration [1, 14]",FMP assay signal (Fig5b) [2],"Fluorescence polarization signal, 14-3-3β titration [1, 15]","Fluorescence polarization signal, 14-3-3β titration [1, 16]","Fluorescence polarization signal, 14-3-3β titration [1, 17]","Fluorescence polarization signal, 14-3-3β titration [1, 18]","Fluorescence polarization signal, 14-3-3β titration [1, 19]","Fluorescence polarization signal, 14-3-3β titration [1, 20]","Fluorescence polarization signal, 14-3-3β titration [1, 21]",also measured
N=C(N)NCCCC1NC(=O)C(CCC(N)=O)NC(=O)C(CCCNC(=N)N)NC(=O)C2CCCN2Cc2cccc(c2)-c2ccccc2CNC1=O (stereo not shown) [CY007458],76.6667,83.6667 and 85.6667,102.667 and 98.6667 and 101.667,115.667 and 111.667 and 118.667,131.667 and 136.667 and 132.667,153.667 and 151.667 and 152.667,140.333 and 143.333 and 144.333,147.333 and 148.333 and 150.333,156.333,159.333 and 161.333 and 160.333,164.333 and 167.333,175.333 and 176.333 and 172.333,121.393 and 152.286 and 131.821 and 116.107 and 106.464 and 116.643,–,–,–,–,–,–,–,–
CC1NC(=O)C(CCCNC(=N)N)NC(=O)C2CCCN2Cc2cccc(c2)-c2ccccc2CNC(=O)C(CCCNC(=N)N)NC1=O (stereo not shown) [CY007476],49.6667 and 67.6667 and 72.6667,68.6667 and 82.6667 and 79.6667,87.6667 and 91.6667 and 95.6667,105.667 and 110.667 and 108.667,127.667 and 126.667,145.667 and 146.667 and 147.667,128.667 and 130.667,139.667 and 137.667 and 141.667,145.667 and 146.667 and 143.667,155.667 and 156.667,165.667 and 164.667 and 162.667,178.667 and 174.667 and 172.667,153.964 and 148.571 and 156.714 and 190.464 and 184.357 and 154.25,5.667 and 6.667,8.667 and 10.6667 and 11.6667,12.6667 and 17.6667 and 16.6667,36.6667 and 60.6667 and 59.6667,6.667 and 12.6667 and 9.667,20.6667 and 16.6667 and 13.6667,27.6667 and 26.6667,"Fluorescence polarization signal, 14-3-3β titration ([1]; CY compound (100 μM), 14-3-3β concentration 7.62939e-9 M): 3.667 and 2.667 and 4.667; Fluorescence polarization signal, 14-3-3β titration ([1]; FC-A + CY compound, 14-3-3β concentration 119.2 pM): 1.667; Fluorescence polarization signal, 14-3-3β titration ([1]; FC-A + CY compound, 14-3-3β concentration 3.05176e-8 M): 5.667 and 8.667; Fluorescence polarization signal, 14-3-3β titration [1, 22]: 49.6667 and 43.6667; Fluorescence polarization signal, 14-3-3β titration [1, 23]: 71.6667 and 68.6667 and 64.6667; Fluorescence polarization signal, 14-3-3β titration [1, 24]: 94.6667 and 91.6667 and 86.6667; Fluorescence polarization signal, 14-3-3β titration [1, 25]: 110.667 and 106.667 and 104.667; Fluorescence polarization signal, 14-3-3β titration [1, 26]: 123.667 and 119.667 and 117.667; CFTR function (FMP assay) [2]: inactive"
CN1CC(=O)NC(CCCNC(=N)N)C(=O)NC(CCC(N)=O)C(=O)NC(CCCNC(=N)N)C(=O)NCc2ccccc2-c2cccc(c2)C1 (stereo not shown) [CY007491],84.6667 and 82.6667 and 83.6667,94.6667 and 91.6667 and 92.6667,107.667 and 108.667,115.667 and 120.667 and 113.667,128.667 and 129.667,146.667 and 147.667,154 and 157,158 and 155 and 159,165 and 162,160 and 162 and 164,164 and 166 and 167,172 and 174 and 170,58.5 and 35.75 and 49.393 and 59.036 and 29.929 and 21.679,2.667,10.6667 and 8.667,20.6667 and 17.6667 and 18.6667,73.6667 and 74.6667 and 72.6667,9 and 13 and 12,23,39 and 43 and 40,"Fluorescence polarization signal, 14-3-3β titration ([1]; CY compound (100 μM), 14-3-3β concentration 6.10352e-8 M): 5.667 and 3.667 and 4.667; Fluorescence polarization signal, 14-3-3β titration ([1]; CY compound (100 μM), 14-3-3β concentration 9.76563e-7 M): 35.6667 and 31.6667 and 32.6667; Fluorescence polarization signal, 14-3-3β titration ([1]; CY compound (100 μM), 14-3-3β concentration 1.95313e-6 M): 46.6667 and 44.6667 and 41.6667; Fluorescence polarization signal, 14-3-3β titration ([1]; CY compound (100 μM), 14-3-3β concentration 3.90625e-6 M): 61.6667 and 57.6667 and 56.6667; Fluorescence polarization signal, 14-3-3β titration ([1]; FC-A + CY compound, 14-3-3β concentration 7.62939e-9 M): 2 and 1; Fluorescence polarization signal, 14-3-3β titration [1, 22]: 61 and 66 and 64; Fluorescence polarization signal, 14-3-3β titration [1, 23]: 90 and 91; Fluorescence polarization signal, 14-3-3β titration [1, 24]: 115 and 116; Fluorescence polarization signal, 14-3-3β titration [1, 25]: 131 and 135 and 137; Fluorescence polarization signal, 14-3-3β titration [1, 26]: 145 and 142 and 147; CFTR function (FMP assay) [2]: inactive"

# Reference: article PMC9226124, “Macrocycle-stabilization of its interaction with 14-3-3 increases plasma membrane localization and activity of CFTR” (Nature Communications, 2022)
